Source: US20220110953A1, “METHODS AND COMPOSITIONS FOR TREATING HUMAN PAPILLOMAVIRUS (HPV)-INDUCED CANCERS” (The Board of Regents of the University of Oklahoma, priority 2020, published 2022)

Assays:
[1] = Body weight and gross toxicity in the SiHa xenograft study; type: in vivo, mice; settings: 10 mg/kg/day i.p., 16 days
Procedure: (§1) The animal study was conducted in accordance with a standard animal protocol approved by the University of Oklahoma Health Sciences Center Institutional Animal Care and Use Committee (IACUC Protocol #19-009-CHI). […] Auranofin (10 mg/kg/day) or placebo (2% DMSO, 10% ethanol and 5% polyethylene glycol 400) were given daily for 16 days, through intraperitoneal injection. Mice were weighed once per week and animal health was monitored daily. At the end of the study, all mice were euthanized by CO2 inhalation followed by cardiac puncture and total blood collection. Tumors were collected at necropsy and a portion of each tumor from each animal was fixed in paraformaldehyde and embedded in paraffin, while another portion was snap-frozen in liquid nitrogen.
(§2) The tumor volume and body weight data were determined to be not normally distributed, and the final tumor weight data was determined to be normally distributed using the Shapiro-Wilk test. Tumor volume and body weight were compared between treatment groups using the Wilcoxon matched-pairs signed rank test. A two-way ANOVA with multiple comparisons was used to evaluate the interaction between time and treatment. An unpaired t-test was used to compare the final tumor weights between the two treatment groups. The p values <0.05 were considered statistically significant. Statistical analysis was performed using Prism 8.0 (GraphPad).

[2] = test system: SiHa cervical cancer xenografts (HPV 16+); assay: SiHa tumor xenograft model; type: in vivo, mice; settings: 10 mg/kg/day i.p., vs placebo
Procedure: as §1, §2

[3] = test system: HPV 16+ and HPV 18+ human cervical cancer cell lines; assay: Auranofin cell growth in human cervical cancer cell lines; type: cell-based; settings: FIG. 6
HeLa (HPV 18+) cells = assay: Effect of IMD 0354 on growth of HeLa cells (cell count after 48h); type: cell-based, human
Procedure: (§3) To examine the effect of IMD 0354 on the growth of HaCat (HPV^−), HeLa (HPV 18^+), CasKi and SiHa (both HPV 16^+), the cells were plated out and allowed to adhere overnight. Next day their culture medium was replaced and different concentrations of IMD 0354 (final concentrations 250, 500, 750, 1000, 1250 nM, using DMSO to equalize input volumes and as negative control) were added to the plates. Cells were counted 48h later.
(§4) IKKβ is a serine/threonine kinase that is highly conserved between flies and humans. It regulates the innate immune pathway by activating NF-κB, which in turn activates the expression of antimicrobial peptides to fight against pathogens. To determine whether IKKβ also has a functional link to E6+UBE3A in human cells, we assessed the effect of the commercial IKKβ inhibitor IMD 0354 on the growth of HaCat (HPV^−), HeLa (HPV 18^+), CasKi (HPV 16^+), and SiHa (HPV 16^+) cells. Different concentrations of the inhibitor were tested ranging from 250, 500, 750, 1000, to 1250 nM.

SiHa (HPV 16+) cells = assay: Effect of IMD 0354 on growth of SiHa cells (cell count after 48h); type: cell-based, human; settings: 250-1250 nM
Procedure: as §3, §4

HaCat (HPV−) cells = assay: Effect of IMD 0354 on growth of HaCat cells (cell count after 48h); type: cell-based, human; settings: 250-1250 nM
Procedure: as §3, §4

HPV 18 E6 = assay: Western blot for phosphorylated E6 in HeLa cells treated with IKKβ inhibitor; type: cell-based, human
Procedure: HPV-18-positive HeLa cells were seeded on 6 cm dishes and allowed to attach overnight. Fresh medium was then added, containing either 0, 100 nM or 500 nM […] inhibitor (in DMSO). After 5 hours the cells were harvested in 2×SDS-PAGE gel loading buffer, run on SDS-PAGE, and analyzed by Western Blot. The membrane was probed with antibody specific for phosphorylated E6, as described previously (Boon and Banks 2012, DOI: 10.1128/JVI.02074-12). Following incubation with primary antibody, the appropriate horseradish peroxidase (HRP)-conjugated secondary antibodies (Dako) were used, followed by enhanced chemiluminescence (ECL) detection according to the manufacturer's instructions.
To assess whether phosphorylation-mediated regulation of E6 plays a role in suppression of Magi degradation, we treated cells expressing HPV 18 E6 with the IKKβ inhibitor […] (at 100 and 500 nM) and compared with untreated cells for E6 phosphorylation. Western blot analysis was performed using an antibody to detect phosphorylated E6.

CC(=O)OC[C@H]1O[C@@H]([S-])[C@H](OC(C)=O)[C@@H](OC(C)=O)[C@@H]1OC(C)=O.CCP(CC)CC.[Au+] [Auranofin]
gross toxicity to the animals [1]: did not cause gross toxicity | body weights ([1]; vs placebo, any time point, p>0.05): no significant differences | tumor growth (tumor volume over time) ([2]; 16 days, Wilcoxon p=0.0011): significant reduction in tumor growth | tumor volume after 16 days of treatment ([2]; two-way ANOVA multiple comparisons p=0.0016): significant reduction in tumor volume | activity against cervical cancer cell lines (cell growth) [3]: active

O=C(Nc1cc(C(F)(F)F)cc(C(F)(F)F)c1)c1cc(Cl)ccc1O [IMD 0354]
number of surviving cells relative to the initial number of cells (HeLa (HPV 18+) cells; 250 nM): 40% | number of surviving cells relative to the initial number of cells (HeLa (HPV 18+) cells; 1250 nM): 10% | effect on cell growth (HeLa (HPV 18+) cells; 250-1250 nM): most strongly affected | effect on cell growth (SiHa (HPV 16+) cells): significant | effect on cell growth (HaCat (HPV−) cells): minor effect | E6 phosphorylation (Western blot) (HPV 18 E6; HeLa cell extracts, 100 nM, 5 hours): lack of E6 phosphorylation | E6 phosphorylation (Western blot) (HPV 18 E6; HeLa cell extracts, 500 nM, 5 hours): results in phosphorylation of E6 | E6 phosphorylation (Western blot) (HPV 18 E6; cells expressing HPV 18 E6, at 100 and 500 nM, compared with untreated cells): extensive phosphorylation of E6
